The text below walks through data of patent US20240246918A1, “COMPOUNDS AND COMPOSITIONS AS EIF4E INHIBITORS AND THE USES THEREOF” (Ribometrix, Inc., priority 2022, published 2024).

Bounds are passed on as bounds.

T1 sequence (P06730 whole entry): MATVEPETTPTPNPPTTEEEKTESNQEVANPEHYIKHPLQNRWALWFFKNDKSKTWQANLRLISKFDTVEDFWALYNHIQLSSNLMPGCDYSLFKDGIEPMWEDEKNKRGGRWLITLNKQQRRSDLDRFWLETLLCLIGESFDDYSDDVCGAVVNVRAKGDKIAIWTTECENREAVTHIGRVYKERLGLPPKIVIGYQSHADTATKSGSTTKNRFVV

The first assay has as its target T1, human eIF4E protein (Homo sapiens, UniProt P06730).
T1 construct: purchased Novus NBP-45314
As to the kind of experiment: Biochemical competitive binding assay (TR-FRET competition, EDA-m7GDP-ATTO-647N probe). The settings on record: read-out: hEIF4E TR-FRET IC50. An outline of the steps:
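IC50 values come from 4-parameter fits of the normalized 665/620 nm TR-FRET ratio. Compound was first incubated 15 min with 4 nM recombinant His-eIF4E bound to 2.5 nM Eu-anti-His antibody, then 15 min with 5 nM m7GDP-ATTO-647N tracer, in pH 7.5 HEPES buffer with 100 mM KCl, Tween-20 and BSA.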
Broadly, the IC50 is the concentration at which inhibition is half-maximal. With `Cc1cc(-c2cc(Cl)ccc2OCCn2c(C)nc3c(c2=O)C[C@H](N2CCC(c4ncn(C)n4)CC2)CC3)c2scc(C(=O)O)c2n1` (single isomer, unassigned) [Compound 462], the IC50 was less than 0.1 µM.

As to `Cc1cc(-c2cc(Cl)ccc2OCCn2c(C)nc3c(c2=O)C[C@H](N2CC[C@H](C(F)F)C2)CC3)c2scc(C(=O)O)c2n1` (single isomer, unassigned) [Compound 122], the IC50 is less than 0.1 µM.

Take `CO[C@H]1CCN([C@@H]2CCc3nc(C)n(CCOc4ccc(Cl)cc4-c4cc(C)nc5c(C(=O)O)csc45)c(=O)c3C2)CC1(C)C` (single isomer, unassigned) [Compound 415]: the IC50 was less than 0.1 µM.

Turning to `Cc1cc(-c2cc(Cl)ccc2OCCn2c(C)nc3c(c2=O)CC(N2CCC4(CC2)CN(CC(F)(F)F)CCO4)CC3)c2scc(C(=O)O)c2n1` (single isomer, unassigned) [Compound 517], the IC50 was less than 0.1 µM.

In the case of `COC1(C(F)(F)F)CC2CCC(C1)N2[C@@H]1CCc2nc(C)n(CCOc3ccc(Cl)cc3-c3cc(C)nc4c(C(=O)O)csc34)c(=O)c2C1` (single isomer, unassigned) [Compound 504], the IC50 was less than 0.1 µM.

Consider `Cc1cc(-c2cc(Cl)ccc2OCCn2c(C)nc3c(c2=O)CC(CN(C)C)(N2CCC(OC(F)(F)F)CC2)CC3)c2scc(C(=O)O)c2n1` (single isomer, unassigned) [Compound 620], for which the IC50 was less than 0.1 µM.

Turning to `Cc1cc(-c2cc(Cl)ccc2OCCn2c(C)nc3c(c2=O)C[C@H](N2CCC4(CC2)CC(F)(F)CO4)CC3)c2scc(C(=O)O)c2n1` (single isomer, unassigned) [Compound 489], the IC50 was less than 0.1 µM.

In the case of `Cc1cc(-c2cc(Cl)ccc2OCCn2c(C)nc3c(c2=O)CC(N2CCC(OC(F)(F)F)CC2)CC3)c2scc(C(=O)NS(=O)(=O)C(F)(F)F)c2n1` (single isomer, unassigned) [Compound 459], the IC50 is less than 0.1 µM.

With `Cc1cc(-c2cc(Cl)ccc2OCCn2c(C)nc3c(c2=O)C[C@@H](N2CC4CCC(C2)C4OC(F)(F)F)CC3)c2scc(C(=O)O)c2n1` (single isomer, unassigned) [Compound 495], the IC50 is less than 0.1 µM.

With `Cc1cc(-c2cc(Cl)ccc2C#CCn2c(C)nc3c(c2=O)CC(C)(N2CCCC4(C2)CC4(F)F)CC3)c2scc(C(=O)O)c2n1` (single isomer, unassigned) [Compound 615], the IC50 fell in the range of 0.1 to 0.5 µM.

Take `Cc1cc(-c2cc(Cl)ccc2OCCn2c(C)nc3c(c2=O)C[C@H](N2CCC[C@]4(C2)CC4(F)F)CC32CC2)c2scc(C(=O)O)c2n1` (single isomer, unassigned) [Compound 581]: the IC50 is less than 0.1 µM.

Take `Cc1cc(-c2cc(Cl)ccc2OCCn2c(C)nc3c(c2=O)C[C@@H](N2CCC[C@@H](c4ccn(C)n4)C2)CC3)c2scc(C(=O)O)c2n1` (single isomer, unassigned) [Compound 446]: the IC50 was less than 0.1 µM.

As to `Cc1cc(-c2cc(Cl)ccc2OCCn2c(C)nc3c(c2=O)C[C@H](N2CCC[C@@H](c4ncccc4F)C2)CC3)c2scc(C(=O)O)c2n1` (single isomer, unassigned) [Compound 465], the IC50 was less than 0.1 µM.

In the case of `Cc1cc(-c2cc(Cl)ccc2OCCn2c(C)nc3c(c2=O)C[C@H](N2CC[C@@H](OC(F)(F)F)C(F)(F)C2)CC3)c2scc(C(=O)O)c2n1` (single isomer, unassigned) [Compound 403], the IC50 is less than 0.1 µM.

Regarding `Cc1cc(-c2cc(Cl)ccc2OCCn2c(C)nc3c(c2=O)C[C@@H](N2CCC(c4ncn(C)n4)CC2)CC3)c2scc(C(=O)O)c2n1` (single isomer, unassigned) [Compound 463], the IC50 was less than 0.1 µM.

Regarding `Cc1cc(-c2cc(Cl)ccc2OCCn2c(C)nc3c(c2=O)C[C@H](N2CCC[C@@H](C(F)F)C2)CC3)c2scc(C(=O)O)c2n1` (single isomer, unassigned) [Compound 116], the half-inhibitory concentration (IC50) is less than 0.1 µM.

For the molecule `Cc1cc(-c2cc(Cl)ccc2OCCn2c(C)nc3c(c2=O)CC(N2CC4CC(C2)C4(F)F)CC3)c2scc(C(=O)O)c2n1` (single isomer, unassigned) [Compound 375], the IC50 was less than 0.1 µM.

Take `Cc1cc(-c2ccc(Cl)cc2OCCn2c(C)nc3c(c2=O)C[C@@H](N(C)[C@H]2C[C@@](C)(O)C2)CC3)c2scc(C(=O)O)c2n1` (single isomer, unassigned) [Compound 228]: the IC50 was less than 0.1 µM.

In the next assay the test system is COLO 205 colorectal tumor cells. As to the kind of experiment: Tumor cell viability inhibition assay (CellTiter-Glo 2.0, 72 hours). It counts as cell-based. The settings on record: COLO 205 cell viability. An outline of the steps:
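IC50 derived by 4-parameter fitting after normalizing luminescence to DMSO and max-inhibition wells. Compounds tested as 11 concentrations in 4-fold steps on COLO 205 cells seeded at 1500 per well in RPMI-1640/10% FBS; ATP content measured with CellTiter-Glo 2.0 after 72 h.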
For orientation: Cellular ATP, detected with luciferase, serves as a proxy for viable cell number.
On to `Cc1cc(-c2cc(Cl)ccc2OCCn2c(C)nc3c(c2=O)CC(CN(C)C)(N2CCC(OC(F)(F)F)CC2)CC3)c2scc(C(=O)O)c2n1` (single isomer, unassigned) [Compound 620], for which the IC50 is less than 5 µM.

`Cc1cc(-c2cc(Cl)ccc2C#CCn2c(C)nc3c(c2=O)CC(C)(N2CCCC4(C2)CC4(F)F)CC3)c2scc(C(=O)O)c2n1` (single isomer, unassigned) [Compound 615] returned an IC50 of more than 20 µM.

Molecule `Cc1cc(-c2cc(Cl)ccc2OCCn2c(C)nc3c(c2=O)CC(N2CC4CC(C2)C4(F)F)CC3)c2scc(C(=O)O)c2n1` (single isomer, unassigned) [Compound 375] displayed an IC50 of less than 5 µM.

Still in this assay, the particulars now being: Homo sapiens, COLO 205, 72 h, COLO 205 cell viability.
For `Cc1cc(-c2cc(Cl)ccc2OCCn2c(C)nc3c(c2=O)C[C@H](N2CCC(c4ncn(C)n4)CC2)CC3)c2scc(C(=O)O)c2n1` (single isomer, unassigned) [Compound 462], the IC50 was less than 5 µM.

Molecule `Cc1cc(-c2cc(Cl)ccc2OCCn2c(C)nc3c(c2=O)C[C@H](N2CC[C@H](C(F)F)C2)CC3)c2scc(C(=O)O)c2n1` (single isomer, unassigned) [Compound 122] registered an IC50 of less than 5 µM.

On to `CO[C@H]1CCN([C@@H]2CCc3nc(C)n(CCOc4ccc(Cl)cc4-c4cc(C)nc5c(C(=O)O)csc45)c(=O)c3C2)CC1(C)C` (single isomer, unassigned) [Compound 415], for which the IC50 was less than 5 µM.

As to `Cc1cc(-c2cc(Cl)ccc2OCCn2c(C)nc3c(c2=O)CC(N2CCC4(CC2)CN(CC(F)(F)F)CCO4)CC3)c2scc(C(=O)O)c2n1` (single isomer, unassigned) [Compound 517], the IC50 was less than 5 µM.

Molecule `COC1(C(F)(F)F)CC2CCC(C1)N2[C@@H]1CCc2nc(C)n(CCOc3ccc(Cl)cc3-c3cc(C)nc4c(C(=O)O)csc34)c(=O)c2C1` (single isomer, unassigned) [Compound 504] came in with an IC50 of less than 5 µM.

`Cc1cc(-c2cc(Cl)ccc2OCCn2c(C)nc3c(c2=O)C[C@H](N2CCC4(CC2)CC(F)(F)CO4)CC3)c2scc(C(=O)O)c2n1` (single isomer, unassigned) [Compound 489] displayed an IC50 of less than 5 µM.

`Cc1cc(-c2cc(Cl)ccc2OCCn2c(C)nc3c(c2=O)CC(N2CCC(OC(F)(F)F)CC2)CC3)c2scc(C(=O)NS(=O)(=O)C(F)(F)F)c2n1` (single isomer, unassigned) [Compound 459] came in with an IC50 of 5 to 20 µM.

Take `Cc1cc(-c2cc(Cl)ccc2OCCn2c(C)nc3c(c2=O)C[C@@H](N2CC4CCC(C2)C4OC(F)(F)F)CC3)c2scc(C(=O)O)c2n1` (single isomer, unassigned) [Compound 495]: the concentration for half-maximal inhibition (IC50) was less than 5 µM.

On to `Cc1cc(-c2cc(Cl)ccc2OCCn2c(C)nc3c(c2=O)C[C@H](N2CCC[C@]4(C2)CC4(F)F)CC32CC2)c2scc(C(=O)O)c2n1` (single isomer, unassigned) [Compound 581], for which the half-inhibitory concentration (IC50) was less than 5 µM.

Regarding `Cc1cc(-c2cc(Cl)ccc2OCCn2c(C)nc3c(c2=O)C[C@@H](N2CCC[C@@H](c4ccn(C)n4)C2)CC3)c2scc(C(=O)O)c2n1` (single isomer, unassigned) [Compound 446], the IC50 was more than 20 µM.

`Cc1cc(-c2cc(Cl)ccc2OCCn2c(C)nc3c(c2=O)C[C@H](N2CCC[C@@H](c4ncccc4F)C2)CC3)c2scc(C(=O)O)c2n1` (single isomer, unassigned) [Compound 465]: the IC50 is less than 5 µM.

For the molecule `Cc1cc(-c2cc(Cl)ccc2OCCn2c(C)nc3c(c2=O)C[C@H](N2CC[C@@H](OC(F)(F)F)C(F)(F)C2)CC3)c2scc(C(=O)O)c2n1` (single isomer, unassigned) [Compound 403], the IC50 lay within 5 to 20 µM.

`Cc1cc(-c2cc(Cl)ccc2OCCn2c(C)nc3c(c2=O)C[C@@H](N2CCC(c4ncn(C)n4)CC2)CC3)c2scc(C(=O)O)c2n1` (single isomer, unassigned) [Compound 463]: the IC50 was less than 5 µM.

For the molecule `Cc1cc(-c2cc(Cl)ccc2OCCn2c(C)nc3c(c2=O)C[C@H](N2CCC[C@@H](C(F)F)C2)CC3)c2scc(C(=O)O)c2n1` (single isomer, unassigned) [Compound 116], the IC50 was less than 5 µM.

With `Cc1cc(-c2ccc(Cl)cc2OCCn2c(C)nc3c(c2=O)C[C@@H](N(C)[C@H]2C[C@@](C)(O)C2)CC3)c2scc(C(=O)O)c2n1` (single isomer, unassigned) [Compound 228], the IC50 is more than 20 µM.
